Reference: PMC11208149, “Structure of plant photosystem I in a native assembly state defines PsaF as a regulatory checkpoint” (Nature Plants, 2024)

Legend:
mature PSI = target: T1, mature PSI (Avena sativa, UniProt A0A3G1AUL2+A0A3G1AZK6); experiment: cryo-EM structure ([…] Å); format: binding
T1 construct: gene psaA; native PSI-LHCI complex purified from mature green leaves, detergent-solubilised; with Photosystem I iron-sulfur center; Photosystem I reaction center subunit II, chloroplastic; Photosystem I reaction center subunit IV, chloroplastic; Photosystem I reaction center subunit III, chloroplastic; Photosystem I reaction center subunit V, chloroplastic; Photosystem I reaction center subunit VI, chloroplastic; Photosystem I reaction center subunit VIII; Photosystem I reaction center subunit IX; Photosystem I reaction center subunit psaK, chloroplastic; Photosystem I reaction center subunit XI, chloroplastic; Photosystem I reaction center subunit N, chloroplastic

[1] = target: T2, pre-PSI-1 (PSI assembly intermediate) (Avena sativa, UniProt A0A3G1AUL2+A0A3G1AZK6); experiment: cryo-EM structure ([…] Å); format: binding; details: native cofactor; site PQN844 of PsaA
T2 construct: gene psaA; native eight-subunit complex from thylakoids of greening seedlings (10 h light), DDM-solubilised; lacks PsaF, PsaG, PsaJ, PsaK, PsaN and LHCI; with Photosystem I iron-sulfur center; Photosystem I reaction center subunit II, chloroplastic; Photosystem I reaction center subunit IV, chloroplastic; Photosystem I reaction center subunit VI, chloroplastic; Photosystem I reaction center subunit VIII; Photosystem I reaction center subunit XI, chloroplastic
T2 sequence (A0A3G1AUL2 1-750): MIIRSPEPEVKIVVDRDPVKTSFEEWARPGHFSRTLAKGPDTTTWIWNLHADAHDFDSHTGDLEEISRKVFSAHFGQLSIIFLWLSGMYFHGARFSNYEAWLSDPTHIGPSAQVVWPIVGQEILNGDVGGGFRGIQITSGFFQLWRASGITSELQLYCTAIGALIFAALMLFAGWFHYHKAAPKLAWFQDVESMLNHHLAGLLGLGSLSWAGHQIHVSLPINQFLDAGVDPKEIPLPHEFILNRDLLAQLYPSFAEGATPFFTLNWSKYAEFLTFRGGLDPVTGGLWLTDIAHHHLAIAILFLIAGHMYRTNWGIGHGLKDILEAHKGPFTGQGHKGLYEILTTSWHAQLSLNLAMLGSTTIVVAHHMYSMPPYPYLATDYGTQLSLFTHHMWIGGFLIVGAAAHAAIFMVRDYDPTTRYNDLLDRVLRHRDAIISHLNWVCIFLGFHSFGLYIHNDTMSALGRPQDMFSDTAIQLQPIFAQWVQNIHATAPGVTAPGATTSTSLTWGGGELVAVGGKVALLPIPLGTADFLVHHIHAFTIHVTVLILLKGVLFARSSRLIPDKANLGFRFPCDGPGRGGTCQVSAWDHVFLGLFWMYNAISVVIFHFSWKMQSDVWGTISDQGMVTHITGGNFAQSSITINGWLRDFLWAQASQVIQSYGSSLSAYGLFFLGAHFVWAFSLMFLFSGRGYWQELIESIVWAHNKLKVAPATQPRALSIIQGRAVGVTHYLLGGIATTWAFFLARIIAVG
T2 sequence (A0A3G1AZK6 1-734): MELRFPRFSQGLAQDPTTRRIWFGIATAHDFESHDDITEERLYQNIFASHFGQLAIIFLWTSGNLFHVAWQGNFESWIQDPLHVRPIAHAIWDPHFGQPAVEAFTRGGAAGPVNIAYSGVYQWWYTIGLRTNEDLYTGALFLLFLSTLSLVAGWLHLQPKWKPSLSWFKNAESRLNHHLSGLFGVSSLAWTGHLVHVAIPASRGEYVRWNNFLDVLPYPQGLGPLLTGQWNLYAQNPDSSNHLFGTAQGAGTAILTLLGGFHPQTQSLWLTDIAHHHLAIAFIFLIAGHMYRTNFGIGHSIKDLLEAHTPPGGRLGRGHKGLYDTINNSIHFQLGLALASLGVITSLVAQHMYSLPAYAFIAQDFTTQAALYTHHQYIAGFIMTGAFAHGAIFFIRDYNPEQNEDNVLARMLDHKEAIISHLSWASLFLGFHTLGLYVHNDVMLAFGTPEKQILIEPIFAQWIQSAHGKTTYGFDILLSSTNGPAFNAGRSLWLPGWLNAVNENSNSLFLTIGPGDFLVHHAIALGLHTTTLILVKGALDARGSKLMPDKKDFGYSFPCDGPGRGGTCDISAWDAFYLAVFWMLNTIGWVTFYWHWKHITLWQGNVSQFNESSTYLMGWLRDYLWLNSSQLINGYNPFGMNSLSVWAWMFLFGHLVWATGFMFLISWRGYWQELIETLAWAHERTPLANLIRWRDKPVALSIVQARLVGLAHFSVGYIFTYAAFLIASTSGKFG
T2 sequence (A0A3G1ATU7 2-81 partner): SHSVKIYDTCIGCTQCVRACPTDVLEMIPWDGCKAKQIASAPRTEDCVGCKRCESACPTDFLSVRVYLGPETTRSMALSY
T2 sequence (A0A3G1AZM6 1-36 partner): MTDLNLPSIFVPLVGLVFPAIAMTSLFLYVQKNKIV

T1 sequence (A0A3G1AUL2 1-750): as the sequence (A0A3G1AUL2 1-750) above
T1 sequence (A0A3G1AZK6 1-734): as the sequence (A0A3G1AZK6 1-734) above
T1 sequence (A0A3G1ATU7 2-81 partner): as the sequence (A0A3G1ATU7 2-81 partner) above
T1 sequence (A0A3G1AZM6 1-36 partner): as the sequence (A0A3G1AZM6 1-36 partner) above
T1 sequence (A0A3G1AZP2 1-42 partner): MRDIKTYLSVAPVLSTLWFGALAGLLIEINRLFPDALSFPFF

With `CC1=C(/C=C/C(C)=C/C=C/C(C)=C/C=C/C=C(C)/C=C/C=C(C)/C=C/C2=C(C)CCCC2(C)C)C(C)(C)CCC1` [BCR, β-carotene] the “cryo-EM structure (2.2 Å)” value (mature PSI; native pigment, site BCR856, near the PSI core - LHCI interface) was “the head group of β-carotene BCR856 resides in the mature structure”.
With `CC1=C(C/C=C(\C)CCC[C@H](C)CCC[C@H](C)CCCC(C)C)C(=O)c2ccccc2C1=O` [PQN, phylloquinone] the “cryo-EM structure (2.1 Å)” value [1] was “phylloquinone PQN844 (PsaA) shows an altered conformation of the isoprenoid chain” and the “cryo-EM structure (2.2 Å)” value (mature PSI; native cofactor, site PQN844 of PsaA) was “phylloquinone PQN844 (PsaA) shows an altered conformation of the isoprenoid chain”.
